Format in all cases: physicochemical
The nature of series [1]: UV absorbance spectrum in solution (λmax, λcrit, extinction coefficients). As to conditions: for λcrit: critical wavelength; for E (1%, 1 cm): mass extinction coefficient; for ε: molar extinction coefficient, in M-1 cm-1 (unit assumed). The method in brief: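 Spectra taken on 0.001% solutions in methanol, 10 mm path. Breakthrough is the wavelength where transmittance rises above 1%; steepness is the nm span over which transmittance goes from 1 to 80%.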

Series [2] is described as follows: % transmission spectrum of 0.1% solution (breakthrough, steepness). As to conditions: for Steepness: distance in nm over which transmittance increases from 1 to 80%; for Breakthrough (1% T at 0.1%): value in nm where transmittance increases beyond 1%, 0.1% solution. The method in brief:
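Transmission was recorded for 0.1% methanol solutions in a 2 mm cuvette. Breakthrough is the wavelength (nm) at which transmittance exceeds 1%; steepness is the nm span over which transmittance rises from 1 to 80%. Some values are averages of multiple measurements.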

Series [3] in a line: Photostability protocol: thin film irradiated with xenon arc lamp. As to conditions: 1 hour xenon arc lamp, ratio of absorbance at λmax irradiated vs unirradiated, ^a = average of multiple measurements. Summed up: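 A 3% solution in EtOH/triglyceride/alkyl benzoate is dried on glass slides into a liquid film of 1.5 mg compound. Films are irradiated 1 h with a Pyrex-filtered 150 W xenon arc lamp (about 100 MED, below 30° C). Washings are read by UV; stability is absorbance at λmax relative to unirradiated film.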

Experimental findings from patent publication US11512042B2, “Enamine compounds for absorbance of electromagnetic energy” (Commonwealth Scientific and Industrial Research Organisation, priority 2015, dated 2022) are described below.

“And” between values parts separate entries of the source, which are not always exact repeats. Equal values may be shown once.

With `CCN(/C=C(/C(=O)C(=O)OC(C)(C)C)c1ccccc1)c1ccccc1` [Compound 271], in series [1], the λmax was 332 nm; the λcrit is 366 nm; the “E (1%, 1 cm)” value is 530; the ε was 18592. In series [2], the Steepness was 36 nm and the “Breakthrough (1% T at 0.1%)” value was found to be 381 nm. In series [3], the Photostability is on record as 75%.
Consider `Cc1ccc(C(=O)/C(=C/N2CCc3ccccc32)c2ccccc2)cc1` [Compound 272], for which, in series [1], the λmax was found to be 362 nm; the λcrit came to 386 nm; the “E (1%, 1 cm)” value amounted to 887; the ε worked out at 30075. In addition, in series [2], the Steepness was determined as 35 nm and the “Breakthrough (1% T at 0.1%)” value is given as 421 nm. Further, in series [3], the Photostability turned out to be 80%.
For `CCN(/C=C(/C(=O)c1ccc(C)cc1)c1ccccc1)c1ccccc1` [Compound 273], in series [1], the λmax was found to be 336 nm; the λcrit was 376 nm; the “E (1%, 1 cm)” value is 614; the ε stood at 20922. Moreover, in series [2], the Steepness amounted to 37 nm and the “Breakthrough (1% T at 0.1%)” value came to 394 nm. In addition, the Photostability in series [3] is given as 73%.
Turning to `Cc1ccc(C(=O)/C(=C/N(c2ccccc2)c2ccccc2)c2ccccc2)cc1` [Compound 274], in series [1], the λmax came to 353 nm; the λcrit was 384 nm; the “E (1%, 1 cm)” value is on record as 420; the ε stood at 16369. Further, in series [2], the Steepness is on record as 42 nm and the “Breakthrough (1% T at 0.1%)” value was 411 nm. Further, the Photostability in series [3] came to 76%.
With `COc1ccccc1C(=O)/C(=C/N1CCc2ccccc21)c1ccccc1` [Compound 275], in series [1], the λmax is reported as 358 nm; the λcrit is 383 nm; the “E (1%, 1 cm)” value came out at 1074; the ε is 38139. Also, in series [2], the Steepness was 30 nm and the “Breakthrough (1% T at 0.1%)” value stood at 406 nm. Also, the Photostability in series [3] came out at 56%.
In the case of `CCN(/C=C(/C(=O)c1ccccc1OC)c1ccccc1)c1ccccc1` [Compound 276], in series [1], the λmax came to 327 nm; the λcrit came to 366 nm; the “E (1%, 1 cm)” value is listed as 711; the ε is 25385. Also, in series [2], the Steepness was found to be 40 nm and the “Breakthrough (1% T at 0.1%)” value is listed as 379 nm. Further, the Photostability in series [3] amounted to 56%.
Consider `O=C(C(=O)N1CCc2ccccc21)/C(=C/N1CCc2ccccc21)c1ccccc1` [Compound 277], for which, in series [1], the λmax came to 365 nm; the λcrit was 388 nm; the “E (1%, 1 cm)” value was determined as 872; the ε amounted to 34350. Moreover, in series [2], the Steepness turned out to be 26 nm and the “Breakthrough (1% T at 0.1%)” value amounted to 414 nm. Also, the Photostability in series [3] amounted to 95%.
As to `CCCCC(CC)COC(=O)C(=O)/C(=C/N1CCc2cc(C(=O)OC)ccc21)c1ccccc1` (centres unmarked) [Compound 278], in series [1], the λmax is 372 nm; the λcrit is on record as 391 nm; the “E (1%, 1 cm)” value is given as 953; the ε is on record as 44118. In series [2], the Steepness is 30 nm and the “Breakthrough (1% T at 0.1%)” value is on record as 418 nm. Further, the Photostability in series [3] turned out to be 88%.
With `COC(=O)c1ccc2c(c1)CCN2/C=C(/C(=O)C(=O)OC(C)(C)C(=O)OC)c1ccccc1` [Compound 279], in series [1], the λmax was determined as 368 nm; the λcrit stood at 386 nm; the “E (1%, 1 cm)” value is recorded as 1304; the ε is on record as 58842. For the same compound, in series [2], the Steepness was found to be 32 nm and the “Breakthrough (1% T at 0.1%)” value came out at 412 nm. Further, in series [3], the Photostability came to 32%.
Turning to `COC(=O)c1ccc2c(c1)CCN2/C=C(/C(=O)C(=O)OC(C)(C)c1ccccc1)c1ccccc1` [Compound 280], in series [1], the λmax is on record as 357 nm; the λcrit is reported as 370 nm; the “E (1%, 1 cm)” value was found to be 1440; the ε is recorded as 67567. In addition, in series [2], the Steepness amounted to 21 nm and the “Breakthrough (1% T at 0.1%)” value was 384 nm. The Photostability in series [3] was 68%.
Take `COC(=O)c1ccc2c(c1)CCN2C=C(C(=O)c1c(C)cc(C)cc1C)c1ccccc1` [Compound 282]: in series [1], the λmax is on record as 368 nm; the λcrit is listed as 382 nm; the “E (1%, 1 cm)” value was 1427; the ε is listed as 60650. Moreover, in series [2], the Steepness was 23 nm and the “Breakthrough (1% T at 0.1%)” value came out at 402 nm. The Photostability in series [3] is 89% and 91%.
Take `COC(=O)c1ccc2c(c1)CCN2/C=C(/C(=O)C(C)(C)C)c1ccccc1` [Compound 283]: in series [1], the λmax is given as 367 nm; the λcrit worked out at 384 nm; the “E (1%, 1 cm)” value worked out at 1339; the ε is given as 48637. For the same compound, in series [2], the Steepness is given as 16 nm and the “Breakthrough (1% T at 0.1%)” value came out at 401 nm. In addition, in series [3], the Photostability is 87% and 88%.
With `COc1ccccc1C(=O)/C(=C/N(c1ccccc1)c1ccccc1)c1ccccc1` [Compound 285], in series [1], the λmax is reported as 345 nm; the λcrit was 378 nm; the “E (1%, 1 cm)” value is reported as 666; the ε is reported as 27034. Also, in series [2], the Steepness was determined as 34 nm and the “Breakthrough (1% T at 0.1%)” value was 398 nm. Also, in series [3], the Photostability is recorded as 76%.
Regarding `COC(=O)c1ccc2c(c1)CCN2/C=C(/C(=O)c1ccc(C(C)(C)C)cc1)c1ccccc1` [Compound 287], in series [1], the λmax was found to be 373 nm; the λcrit is 389 nm; the “E (1%, 1 cm)” value is recorded as 1007; the ε is reported as 44238. Also, in series [2], the Steepness came out at 35 nm and the “Breakthrough (1% T at 0.1%)” value amounted to 425 nm. Also, in series [3], the Photostability is 76%.
As to `CCC(CC)(CC)OC(=O)/C(=C/N1CCc2cc(C(=O)OC)ccc21)c1ccccc1` [Compound 289], in series [1], the λmax came to 357 nm; the λcrit is reported as 370 nm; the “E (1%, 1 cm)” value is listed as 1405; the ε is given as 59157. For the same compound, in series [2], the Steepness is 18 nm and the “Breakthrough (1% T at 0.1%)” value came to 381 nm. Besides, in series [3], the Photostability turned out to be 78%.
Regarding `CCN(CC)C(=O)C(=O)/C(=C/N1CCc2cc(C(=O)OC)ccc21)c1ccccc1` [Compound 290], in series [1], the λmax worked out at 370 nm; the λcrit was found to be 389 nm; the “E (1%, 1 cm)” value came out at 1260; the ε is listed as 51191. In addition, in series [2], the Steepness is recorded as 22 nm and the “Breakthrough (1% T at 0.1%)” value amounted to 412 nm. Moreover, the Photostability in series [3] came to 53%.
In the case of `COC(=O)c1ccc2c(c1)CCN2C=C(C(=O)C(C)(C)C)c1ccc(C)cc1` [Compound 295], in series [1], the λmax was 368 nm; the λcrit came out at 385 nm; the “E (1%, 1 cm)” value came out at 1307; the ε is 49288. In series [2], the Steepness is listed as 16 nm and the “Breakthrough (1% T at 0.1%)” value is listed as 402 nm. The Photostability in series [3] was 68%.
